What was measured:
CDK9 = CDK9 (Homo sapiens, UniProt P50750); experiment: Inhibition of CDK9 kinase activity (caliper mobility shift assay); assay type: biochemical; conditions: for IC50: 10 concentrations from 10 µM, three-fold dilutions
Protocol: Compounds were tested at a concentration of 10 nM with detection in duplicate wells, or tested at 10 concentrations starting from 10 µM with three-fold serial dilutions, with detection in duplicate wells.
The inhibitory effect of the compounds on the activity of CDK9 protein kinase was detected by the caliper mobility shift assay method. 250 nL of the compound at 100-fold final concentration was transferred to a target 384-well-plate with a dispenser Echo 550. A kinase solution at 2.5-fold final concentration was prepared using 1× kinase buffer. 10 µL of the kinase solution at 2.5-fold final concentration was added to the compound well and positive control well respectively. 10 µL of 1× kinase buffer was added to the negative control well. The 384-well plate was centrifuged at 1000 rpm for 30 seconds and incubated at room temperature for 10 minutes. A mixed solution of ATP and kinase substrate at 5/3-fold final concentration was prepared with 1× kinase buffer, and to the 384-well plate was added with 15 µL per well of the mixed solution of ATP and substrate at 5/3-fold final concentration to start the reaction. The plate was centrifuged at 1000 rpm for 30 seconds, shaken to mix evenly, and incubated at room temperature for a corresponding time. 30 µL of detection stopping solution was added to terminate the kinase reaction. The 384-well plate was centrifuged at 1000 rpm for 30 seconds and shaken to mix evenly. The conversion rate was read with Caliper EZ Reader. The percent conversion inhibition rate = (% positive control conversion rate mean - % sample conversion rate / (% positive control conversion rate mean - % negative control conversion rate mean). Among them: negative control wells represent the conversion rate readings of kinase buffer background wells; positive control wells represent the conversion rate readings of wells without inhibition by compound. With the log value of concentration as the x-axis and the percentage inhibition rate as the y-axis, a dose-response curve was fitted using the log (inhibitor) vs. response -Variable slope of the analysis software GraphPad Prism 5 to obtain the IC50 value of each compound on enzyme activity. Calculation formula: y=Bottom + (Top-Bottom)/(1+10^((LogIC50-x) × hillslope)), x: logarithm of inhibitor concentration; y: % inhibition rate.

MV-4-11 = experiment: CDK9 cell activity assay, cell growth inhibition (CellTiter-Glo, 72 hours); assay type: cell-based; conditions: Homo sapiens, MV4-11
Protocol: (§1) In the CDK9 cell activity assay, the cell line MV-4-11 was cultured in IMDM culture medium containing 10% fetal bovine serum (containing 100 U/mL penicillin and 0.1 g/L streptomycin); the cell line HCC1187 was cultured in RPMI-1640 culture medium containing 10% fetal bovine serum (containing 100 U/mL penicillin and 0.1 g/L streptomycin); the cell line Mia Paca-2 was cultured in DMEM containing 10% fetal bovine serum and 2.5% horse serum (containing 100 U/mL penicillin and 0.1 g/L streptomycin); and the cell line A375 was cultured in RPMI-1640 culture medium containing 10% fetal bovine serum (containing 100 U/mL penicillin and 0.1 g/L streptomycin). All cells were cultured in an incubator with saturated humidity at 37°C with 5% CO2.
(§2) When MV-4-11 cells, HCC1187 cells, Mia Paca-2 cells, and A375 cells grew to 80%-90% confluence, they were digested with trypsin, resuspended, counted, and diluted to a certain cell density with complete medium. 100 µL of the cells was plated into each well of a 96-well plate, and the complete medium was used as a background control. The cells were cultured overnight in an incubator with saturated humidity at 37°C with 5% CO2. The compounds were diluted with DMSO to a final concentration of 200×. 3 µL of the stock solution of the above compounds in DMSO was added to 197 µL of complete medium, and 50 µL of the compound diluted in the medium was added to the cells of each well. The cells were cultured in an incubator with saturated humidity at 37°C with 5% CO2 for 72 hours. After 72 hours, the culture plates were placed at room temperature for equilibrium. 40 µL of CellTiter-Glo® reagent was added to each well. The plate was mixed evenly on a shaker for 2 minutes to lyse the cells then incubated at room temperature for 60 minutes to stabilize the chemiluminescent signal, and the chemiluminescence was read using a PE EnVision microplate reader. The inhibition rate on cell growth was calculated as % Inh = (DMSO well - compound treatment well) / (DMSO well - background well) x 100, and fitting was performed using GraphPad Prism 5 to obtain the IC50 values against cell growth.

HCC1187 = experiment: as above; assay type: cell-based; conditions: Homo sapiens
Protocol: as §1, §2

Sequence of CDK9 (P50750 whole entry): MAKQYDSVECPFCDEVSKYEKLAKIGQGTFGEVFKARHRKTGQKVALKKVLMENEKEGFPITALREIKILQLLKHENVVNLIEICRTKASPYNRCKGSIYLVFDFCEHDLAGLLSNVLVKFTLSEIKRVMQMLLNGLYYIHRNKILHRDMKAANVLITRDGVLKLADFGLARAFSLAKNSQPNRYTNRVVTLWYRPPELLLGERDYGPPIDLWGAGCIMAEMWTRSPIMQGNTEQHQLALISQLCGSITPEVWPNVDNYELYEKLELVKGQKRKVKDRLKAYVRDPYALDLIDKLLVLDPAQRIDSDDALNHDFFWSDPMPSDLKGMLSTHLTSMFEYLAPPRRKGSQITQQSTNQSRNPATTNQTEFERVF
Sequence of CDK9 (O60563 whole entry partner): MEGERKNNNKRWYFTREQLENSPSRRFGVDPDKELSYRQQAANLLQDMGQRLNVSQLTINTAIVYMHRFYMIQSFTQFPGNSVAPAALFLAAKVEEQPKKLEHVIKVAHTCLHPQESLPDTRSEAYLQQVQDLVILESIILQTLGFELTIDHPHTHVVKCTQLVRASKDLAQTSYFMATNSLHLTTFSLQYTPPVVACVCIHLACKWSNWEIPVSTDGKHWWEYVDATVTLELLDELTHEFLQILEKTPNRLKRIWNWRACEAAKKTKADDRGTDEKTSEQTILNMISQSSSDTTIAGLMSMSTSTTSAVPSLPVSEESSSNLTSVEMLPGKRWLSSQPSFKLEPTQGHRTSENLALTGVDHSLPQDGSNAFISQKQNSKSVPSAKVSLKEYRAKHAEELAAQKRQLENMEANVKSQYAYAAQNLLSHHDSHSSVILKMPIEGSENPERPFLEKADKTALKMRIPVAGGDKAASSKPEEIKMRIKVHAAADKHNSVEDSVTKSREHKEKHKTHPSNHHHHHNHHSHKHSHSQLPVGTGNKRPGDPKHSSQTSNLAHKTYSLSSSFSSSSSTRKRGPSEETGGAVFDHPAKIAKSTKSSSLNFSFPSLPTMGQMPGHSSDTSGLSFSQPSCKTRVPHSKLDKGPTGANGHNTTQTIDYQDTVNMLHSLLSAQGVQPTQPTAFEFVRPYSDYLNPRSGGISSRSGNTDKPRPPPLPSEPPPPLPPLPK

| SMILES | IC50 (CDK9) | inhibition at 0.01 µM (CDK9; compound at 10 nM, read-out: Inhibition rate on CDK9 kinase activity) | IC50 (MV-4-11) | IC50 (HCC1187) |
| --- | --- | --- | --- | --- |
| Cc1nc2sc1-c1nc(ncc1F)Nc1cccc(c1)NCCOCCN2 [Compound 5, 2^5-fluoro-1^4-methyl-8-oxa-3,5,11-triaza-1(5,2)-thiazol-2(4,2)-pyrimidina-4(1,3)-benzenacyclodec aphane] | < 100 nM | 25 to 49% | – | – |
| Cc1nc2sc1-c1nc(ncc1F)Nc1cccc(c1)NC/C=C\CN2 [Compound 6, (Z)-2^5-fluoro-1^4-methyl-3,5,10-triaza-1(5,2)-thiazolin-2(4,2)-pyrimidina-4(1,3)-benzenacyclodec aphan-7-ene] | 100 to 500 nM | – | – | – |
| CN1CCN(c2ccc3cc2COCCCCCNc2nc(ncc2Cl)N3)CC1 [Compound 21, 1^5-chloro-3^4-(4-methylpiperazin-1-yl)-5-oxa-2,11-diaza-1(2,4)-pyrimidina-3(1,3)-benzenacyclou ndecaphane] | 100 to 500 nM | – | – | – |
| Cc1ccc2cc1-c1nc(ncc1Cl)Nc1cccc(c1)NCCCCN2 [Compound 22, 2^5-chloro-1^6-methyl-3,5,10-triaza-2(4,2)-pyrimidina-1,4(1,3)-dibenzocyclodecane] | < 100 nM | – | – | – |
| c1cc2cc(c1)Nc1nccc(n1)NCCCCCNC2 [Compound 24, 2,5,11-triaza-1(2,4)-pyrimidina-3(1,3)-benzocycloundecaphane] | < 100 nM | – | – | – |
| CN1CCCCCNCc2cccc(c2)Nc2ncc(Cl)c1n2 [Compound 25, 1^5-chloro-11-methyl-2,5,11-triaza-1(2,4)-pyrimidina-3(1,3)-benzocycloundecaphane] | < 100 nM | – | – | – |
| Cc1ccc2cc1-c1nc(ncc1Cl)Nc1cnn(c1)CC/C=C\CN2 [Compound 27, (4^4E,7Z)-2^5-chloro-1^6-methyl-4^1hydro-3,10-diaza-2(4,2)-pyrimidina-4(4,1)-pyrazole-1(1,3)-benz enecyclodecane-7-ene] | < 100 nM | – | – | – |
| Cc1ccc2cc1-c1nc(ncc1Cl)Nc1cnn(c1)CCCCCN2 [Compound 28, (E)-2^5-chloro-1^6-methyl-4^1hydro-3,10-diaza-2(4,2)-diaza-2(4,2)-pyrimidina-4(4,1)-pyrazola-1(1, 3)-benzenacyclodecaphane] | < 100 nM | – | < 250 nM | – |
| Cc1ccc2cc1-c1nc(ncc1F)Nc1cccc(c1)NC/C=C\CN2 [Compound 29, (Z)-2^5-fluoro-1^6-methyl-3,5,10-triaza-2(4,2)-pyrimidina-1,4(1,3)-dibenzenacyclodecaphan-7-ene] | < 100 nM | – | – | – |
| Cc1ccc2cc1-c1nc(ncc1F)Nc1cccc(c1)NCCCCN2 [Compound 30, 2^5-fluoro-1^6-methyl-3,5,10-triaza-2(4,2)-pyrimidina-1,4(1,3)-dibenzenacyclodecaphane] | < 100 nM | – | – | – |
| Clc1cnc2nc1-c1cnn(c1)CC/C=C\CNc1cccc(c1)N2 [Compound 31, (1^4Z,7Z)-2^5-chloro-1^1H-3,5-diaza-2(4,2)-pyrimidina-1(4,1)-pyrazola-4(1,3)-benzenacyclodecaph an-7-ene] | < 100 nM | – | < 250 nM | 250 to 1000 nM |
| Clc1cnc2nc1-c1cnn(c1)CCCCCNc1cccc(c1)N2 [Compound 32, (Z)-2^5-chloro-1^1H-3,5-diaza-2(4,2)-pyrimidina-1(4,1)-pyrazola-4(1,3)-benzenacyclodecaphane] | < 100 nM | – | – | – |
| Clc1cnc2nc1-c1cnn(c1)CCCCCCn1cc(c(Cl)n1)N2 [Compound 33, (1^4Z,4^4E,7Z)-2^5,4^3-chloro-1^1H,4^1H-3-aza-2(4,2)-pyrimidina-1,4(4,1)-bipyrazolacyclodecaphane] | 500 to 1000 nM | – | – | – |
| Clc1cnc2nc1-c1cccc(c1)OCCCCNCc1cccc(c1)N2 [Compound 34, 2^5-chloro-11-oxa-3,6-diaza-2(4,2)-pyrimidina-1,4(1,3)-dibenzenacycloundecaphane] | < 100 nM | – | – | – |
| Cc1ccc2cc1-c1nc(ncc1Cl)Nc1cccc(c1)CNCCCN2 [Compound 35, 2^5-chloro-1^6-methyl-3,6,10-triaza-2(4,2)-pyrimidina-1,4(1,3)-dibenenacyclodecaphane] | < 100 nM | – | < 250 nM | < 250 nM |
| Cc1ccc2cc1-c1nc(ncc1Cl)Nc1cccc(c1)CNCCCCO2 [Compound 36, 2^5-chloro-1^6-methyl-11-oxy-3,6-diaza-2(4,2)-pyrimidina-1,4(1,3)-dibenzocycloundecaphane] | < 100 nM | – | – | – |
| Fc1cnc2nc1-c1cccc(c1)NC/C=C\CNc1cccc(c1)N2 [Compound 37, (Z)-2^5-fluoro-3,5,10-triaza-2(4,2)-pyrimidina-1,4(1,3)-dibenzenacyclooctyna-7-ene] | < 100 nM | – | – | – |
| Fc1cnc2nc1-c1cccc(c1)NCCCCNc1cccc(c1)N2 [Compound 38, 2^5-fluoro-3,5,10-triaza-2(4,2)-pyrimidina-1,4(1,3)-dibenzenacyclodecaphane] | < 100 nM | – | 250 to 1000 nM | 250 to 1000 nM |
| COc1ccc2cc1-c1nc(ncc1F)Nc1cccc(c1)NC/C=C\CN2 [Compound 39, (Z)-2^5-fluoro-1^6-methoxy-3,5,10-triaza-2(4,2)-pyrimidina-1,4(1,3)-dibenzenacyclooctyna-7-ene] | < 100 nM | – | 250 to 1000 nM | 1000 to 5000 nM |
| COc1ccc2cc1-c1nc(ncc1F)Nc1cccc(c1)NCCCCN2 [Compound 40, 2^5-fluoro-1^6-methoxy-3,5,10-triaza-2(4,2)-pyrimidina-1,4(1,3)-dibenzenacyclodecaphane] | < 100 nM | – | – | – |
| Cc1ccc2cc1-c1nc(ncc1Cl)Nc1cnn(c1)CCOCCN2 [Compound 41, (E)-2^5-chloro-1^6-methyl-4^1H-7-oxa-3,10-diaza-2(4,2)-pyrimidina-4(4,1)-pyrazola-1(1,3)-benzena cyclodecaphane] | < 100 nM | – | < 250 nM | < 250 nM |
| Clc1cnc2nc1N1CCC(C1)NCCCNCc1cccc(c1)N2 (stereo not shown) [Compound 43, 2^5-chloro-3,6,10-triaza-2(4,2)-pyrimidina-1(1,3)-pyrrolidina-4(1,3)-benzenacyclodecaphane] | 500 to 1000 nM | – | – | – |
| Clc1cnc2nc1N1CCC(C1)NCCCCNCc1cccc(c1)N2 (stereo not shown) [Compound 44, 2^5-chloro-3,6,11-triaza-2(4,2)-pyrimidina-1(1,3)-pyrrolidina-4(1,3)-benzenacycloalkaphane] | 500 to 1000 nM | – | – | – |
| Clc1cnc2nc1N1CCC(C1)OCCCNCc1cccc(c1)N2 (stereo not shown) [Compound 45, 2^5-chloro-10-oxa-3,6-diaza-2(4,2)-pyrimidina-1(1,3)-pyrrolidina-4(1,3)-benzenacyclodecaphane] | 100 to 500 nM | – | – | – |
| Cc1ccc2cc1-c1nc(ncc1Cl)Nc1cnn(c1)CCNCCN2 [Compound 46, (E)-2^5-chloro-1^6-methyl-4^1H-3,7,10-triaza-2(4,2)-pyrimidina-4(4,1)-pyrazola-1(1,3)-benzenacycl odecaphane] | < 100 nM | – | 250 to 1000 nM | 250 to 1000 nM |
| Clc1cnc2nc1NCCCCCn1cc(cn1)N2 [Compound 47, (E)-1^5-chloro-3^1H-2,9-diaza-1(2,4)-pyrimidina-3(4,1)-pyrazolacyclononaphane] | 100 to 500 nM | – | – | – |

From patent EP4610262A1, “MACROCYCLIC COMPOUND AS CDK9 INHIBITOR AND USE THEREOF” (Artivila Biopharma, priority 2022, dated 2024)
